Entries after “also recorded” stand apart in the source; their conditions may differ.
Tests used:
[1] = tested on: HepG2 cells; experiment: Mortality from simulated ischemia (LDH release); format: cell-based, human
Method: After heat treatment, cultures were incubated overnight at 37° C. When trypan blue exclusion was used as the criterion for cell survival, cells (unattached and attached) were harvested, and trypan blue-excluding cells were counted in a hemocytometer. In some experiments, cell killing was estimated by the lactate dehydrogenase (LDH) release assay, using the LDH Assay Kit from Sigma Corp. (St. Louis, Mo.). To quantify detachment from the substratum, cultures were washed three times with prewarmed DMEM, and the number of cells remaining on dishes were determined using a hemocytometer. […] Ischemic conditions were simulated as described previously (Mestril, R. et al., J. Clin. Invest., 93:759–767 (1994)). Briefly, cells were placed in slightly hypotonic HBSS (1.3 mM CaCl2, 5 mM KCl, 0.3 mM KH2PO4, 0.5 mM MgCl2, 0.4 mM MgSO4, 69 mM NaCl, 4 mM NaHCO3, 0.3 mM Na2HPO4) without glucose or serum, and made hypoxic for 4–6 hours at 37° C. Control cells were left under normoxic conditions for the same period of time. Hypoxia was achieved by using an air-tight jar from which oxygen was removed by displacement with argon. After 10 minutes of gas exchange, the oxygen concentration was <0.2%. Hypoxia was maintained using the oxygen-consuming GasPak System from BBL Microbiology Systems (Cockeysville, Md.).

[2] = tested on: HeLa-CAT cells; experiment: Cell proliferation and cell cycle distribution (FACS, propidium iodide); format: cell-based, human
Method: This cell cycle arrest was followed by flow cytometry of propidium iodide-stained cells. To determine whether mutHSF-induced expression (enhanced expression) of hsp protects the cells from hyperthermia-induced cell cycle arrest, cells were either co-transfected with a CMV promoter-linked mutHSF gene construct and a GFP construct, or singly transfected with the GFP construct. After heat treatment and postincubation as described herein, cells were sorted based on GFP fluorescence. […]
For fluorescence-activated cell sorting, cells from cultures transfected or co-transfected with EGFP-expressing construct were removed from tissue culture dishes by treatment with 0.04% EDTA in phosphate-buffered saline (PBS) and were resuspended in PBS. […] Excitation wavelength was 488 nm, and detection wave lengths were 650 nm (long pass) for propidium iodide and 520 nm (narrow band) for detection of EGFP fluorescence. […]
Protein synthesis dropped to about 10% of the normal rate during heat shock but, after a 1 hour recovery period, returned to pre-shock level in HSF1(+)-expressing but not control cells. […] Fluorescence-activated cell sorting and analyses of DNA content were performed on a FACStar Plus machine (Becton-Dickinson, San Jose, Calif.) configured as described elsewhere (Parks, D. R. et al., In: The Handbook of Experimental Immunology, 4th Edition. Vol. 29. pp. 1–29, 1986). […]

## human HSF1d202–316 [HSF1(+)]
[1]
  decrease of mortality from simulated ischemia: more than 50%
[2]; 43° C. heat shock, GFP-positive cells, listed as mutHSF
  heat-induced G2/M cell cycle arrest: much lower proportion of cells in G2/M phase; also recorded: only a small fraction
[2]; FACS-isolated, days two to four
  cell proliferation: severely inhibited cell proliferation

From US7053052B2, “Therapies involving mutated heat shock transcription factor” (priority 1997, dated 2006)
